Legend:
Format in all cases: cell-based
[1] = system: human melanoma cells (BLM); assay: WST-1 viability assay, BLM cells; conditions: for IC50: Homo sapiens, 72 h treatment, WST-1 assay, 2D culture, 0–50 μM; for selectivity index (SI): MRC-5 versus BLM, 72 h, WST-1
Protocol: (§1) In addition, the cytotoxic activity of compounds 17, 20, and 22–30 was assessed by the WST-1 viability assay using BLM (human melanoma) and MRC-5 (noncancerous human fibroblasts) cells growing in a monolayer (2D cultures, Table 2) after 72 h of treatment.
(§2) Human cells from melanoma (BLM) and human lung fibroblasts (MRC-5, Merck, USA) were used to evaluate in vitro cytotoxicity of the prepared compounds. The cells were maintained at the exponential phase of growth (passaging done by trypsin–EDTA solution) in DMEM and MEM, for BLM and MRC-5, respectively, with stable L-glutamine and supplemented with 10% fetal bovine serum (Thermo Fisher Scientific, USA). The cells were kept in an incubator at 37 °C, 5% CO2 in the atmosphere, and 95% humidity.
(§3) The compound cytotoxicity was determined by a WST-1 viability assay (Merck, USA). The amount of 5000 BLM and MRC-5 cells were seeded into individual wells of 96-well plates in 100 μL of cell cultivation media and maintained in an incubator for 16 h. After this period, the cells were treated with a concentration series (0–50 μM) of the tested compounds diluted in another 100 μL of cultivation media, which was added to the wells containing cells and incubated for 72 h. Then, BLM and MRC-5 cell viability was evaluated by WST-1 agent (5% v/v solution in phenol red-free DMEM media), i.e., the cell media was discarded and 100 μL of WST-1 solution was added. After 2 h incubation, the absorbance of formazan, derived from the WST-1 tetrazolium salt was determined spectrophotometrically at 450 nm (reference at 650 nm) by a UV-vis spectrophotometer (Bio-Rad, USA). Untreated cells, cells treated only with a vehicle, and cells treated with cytochalasin B (1) and D (2) served as controls. The measurement occurred in three independent repetitions each of which consisted of three technical replicates. The data were plotted as dose–response curves from which the half-maximal inhibitory concentrations (IC50) were calculated using AAT Bioquest.

[2] = system: human melanoma cell line BLM; assay: Spheroid invasion assay (migrastatic activity); conditions: 24 h; for rel. spheroid area: 10 µM, BLM spheroids in collagen, DMSO control 1.02; for migrastatic activity (cell migration, in words): 10 μM, BLM spheroid invasion
Protocol: Compounds 17, 20, and 22–30 were screened for their migrastatic activity using a spheroid invasion assay with the human melanoma cell line BLM.[46] Spheroids were formed and subsequently treated with cytochalasin analogues at a concentration of 10 μM for 24 h. CytB (1) and CytD (2) served as reference compounds for comparison. There was no significant increase in cell migration observed for any of the compounds tested. […] However, the effect was less profound than that of the reference compounds 1 and 2.
The spheroid invasion assay was performed following a previously published protocol.[63] Briefly, BLM cells were grown as spheroids using 3D Petri Dish (Microtissues). After 2 days of spheroid formation, 1.5 mg mL^−1 collagen solution (rat tail, collagen type I) was prepared (1.5 mg mL^−1 rat-tail collagen, 1× DMEM, 1% (v/v) FBS) and added at the bottom of a 96-well plate. Spheroids were embedded into the collagen (one spheroid per well) and covered with another layer of the gel. Collagen was polymerized at 37 °C and subsequently overlaid with a cultivation medium. Images of spheroids were taken with Leica TCS SP2 microscope (5×/0.15 dry objective; LAS X Life Science Microscope software) immediately after their seeding into collagen and again after 24 h. The area of the spheroids at 0 and 24 h was measured using FiJi (Rasband, W.S., ImageJ, NIH, Bethesda, MD, USA). Cellular invasiveness was determined as an increase in spheroid area within 24 h. Three independent experiments were conducted with at least 8 spheroids analysed in each experiment. Statistical analysis was performed in GraphPad using one-way ANOVA. For numeric data and representative images from this assay, see ESI, ^† Table S1 and Fig. S1.
Table S1: Spheroid invasion assay with BLM cell line at 10 µM concentration, 24 h.
Figure S1: Representative images of BLM cell spheroid invasion assay with or without
inhibitor. Images were taken at 0 h and 24 h. using a Leica TCS SP2 microscope (5x/0.15
dry objective). DMSO (first column) was used as a control. Scale bar 500 µm.

[3] = system: human fibroblasts (MRC-5); assay: WST-1 viability assay, MRC-5 cells; conditions: MRC5, 72 h treatment, WST-1 assay, 2D culture, 0–50 μM
Protocol: as §1, §2, §3

| SMILES | IC50 [1] [µM] | rel. spheroid area [2] | IC50 [3] [µM] | selectivity index (SI) [1] | migrastatic activity (cell migration, in words) [2] |
| --- | --- | --- | --- | --- | --- |
| COC(=O)[C@@]12C(=O)N[C@@H](Cc3ccccc3)[C@@H]1C(C)=C(C)[C@@H](OC(C)=O)[C@@H]2CCOCCc1ccccc1 [Compound 28, Methyl (1S,3aS,4R,5S,7aR)-5-acetoxy-1-benzyl-6,7-dimethyl-3-oxo-4-(2-phenethoxyethyl)-1,2,3,4,5,7a-hexahydro-3aH-isoindole-3a-carboxylate] | > 50 | 0.72 | > 50 | – | – |
| CC1=C[C@H](CCOCCc2ccccc2)[C@]2(C(=O)O)C(=O)N[C@@H](Cc3ccccc3)[C@@H]2[C@@H]1C [Compound 29, (1S,3aR,4S,7S,7aR)-1-Benzyl-6,7-dimethyl-3-oxo-4-(2-phenethoxyethyl)-1,2,3,4,7,7a-hexahydro-3aH-isoindole-3a-carboxylic acid] | > 50 | 1.05 | > 50 | – | – |
| COC(=O)[C@@]12C(=O)N[C@@H](Cc3ccccc3)[C@@H]1[C@H](C)C(C)=C[C@@H]2CCOCCc1ccc(C)cc1 [Compound 17c, Methyl (1S,3aR,4S,7S,7aR)-1-benzyl-6,7-dimethyl-4-(2-(4-methylphenethoxy)ethyl)-3-oxo-1,2,3,4,7,7a-hexahydro-3aH-isoindole-3a-carboxylate] | 30.3 ± 4.87 | 0.93 | 21.5 ± 2.78 | 0.71 | – |
| COC(=O)[C@@]12C(=O)N[C@@H](Cc3ccccc3)[C@@H]1[C@H](C)[C@@](C)(O)[C@@H](O)[C@@H]2CCOCCc1ccc(OC)cc1 [Compound 23b, Methyl (1S,3aS,4R,5S,6R,7S,7aR)-1-benzyl-5,6-dihydroxy-4-(2-(4-methoxyphenethoxy)ethyl)-6,7-dimethyl-3-oxooctahydro-3aH-isoindole-3a-carboxylate] | > 50 | 1.10 | > 50 | – | – |
| COC(=O)[C@@]12C(=O)N[C@@H](Cc3ccccc3)[C@@H]1[C@H](C)[C@@]1(C)O[C@H]1[C@@H]2CCOCCc1ccccc1 [Compound 22a, Methyl (1aS,2R,2aS,5S,5aR,6S,6aR)-5-benzyl-6,6a-dimethyl-3-oxo-2-(2-phenethoxyethyl)octahydro-2aH-oxireno[2,3-f]isoindole-2a-carboxylate] | > 50 | 1.11 | > 50 | – | – |
| COC(=O)[C@@]12C(=O)N[C@@H](Cc3ccccc3)[C@@H]1[C@H](C)[C@@]1(C)O[C@H]1[C@@H]2CCOCCc1ccc(Br)cc1 [Compound 22h, Methyl (1aS,2R,2aS,5S,5aR,6S,6aR)-5-benzyl-2-(2-(4-bromophenethoxy)ethyl)-6,6a-dimethyl-3-oxooctahydro-2aH-oxireno[2,3-f]isoindole-2a-carboxylate] | > 50 | 0.98 | > 50 | – | – |
| COC(=O)[C@@]12C(=O)N[C@@H](Cc3ccccc3)[C@@H]1[C@H](C)C(C)=C[C@@H]2CCOCCc1cccc(Br)c1 [Compound 17i, Methyl (1S,3aR,4S,7S,7aR)-1-benzyl-4-(2-(3-bromophenethoxy)ethyl)-6,7-dimethyl-3-oxo-1,2,3,4,7,7a-hexahydro-3aH-isoindole-3a-carboxylate] | 24.3 ± 1.82 | 1.14 | 31.2 ± 6.95 | 1.3 | – |
| COC(=O)[C@@]12C(=O)N[C@@H](Cc3ccccc3)[C@@H]1[C@H](C)C(C)=C[C@@H]2CCOCCc1ccc(Cl)cc1 [Compound 17g, Methyl (1S,3aR,4S,7S,7aR)-1-benzyl-4-(2-(4-chlorophenethoxy)ethyl)-6,7-dimethyl-3-oxo-1,2,3,4,7,7a-hexahydro-3aH-isoindole-3a-carboxylate] | 19.5 ± 1.23 | 1.17 | 22.2 ± 12.2 | 1.1 | – |
| C=C1[C@@H](C)[C@H]2[C@H](Cc3ccccc3)NC(=O)[C@@]2(C(=O)OC)[C@@H](CCOCCc2ccccc2)[C@@H]1OC(C)=O [Compound 27, Methyl (1S,3aS,4R,5S,7S,7aR)-5-acetoxy-1-benzyl-7-methyl-6-methylene-3-oxo-4-(2-phenethoxyethyl)octahydro-3aH-isoindole-3a-carboxylate] | > 50 | 0.89 | > 50 | – | inactive |
| COC(=O)[C@@]12C(=O)N[C@@H](Cc3ccccc3)[C@@H]1C(C)=C(C)[C@@H](O)[C@@H]2CCOCCc1ccccc1 [Compound 25, Methyl (1S,3aS,4R,5S,7aR)-1-benzyl-5-hydroxy-6,7-dimethyl-3-oxo-4-(2-phenethoxyethyl)-1,2,3,4,5,7a-hexahydro-3aH-isoindole-3a-carboxylate] | > 50 | 1.15 | > 50 | – | inactivity |
| COC(=O)[C@@]12C(=O)N[C@@H](Cc3ccccc3)[C@@H]1[C@H](C)C(C)=C[C@@H]2CCOCCc1ccc(F)cc1 [Compound 17d, Methyl (1S,3aR,4S,7S,7aR)-1-benzyl-4-(2-(4-fluorophenethoxy)ethyl)-6,7-dimethyl-3-oxo-1,2,3,4,7,7a-hexahydro-3aH-isoindole-3a-carboxylate] | 27.7 ± 2.45 | 1.24 | 33.5 ± 4.98 | 1.2 | – |
| COC(=O)[C@@]12C(=O)N[C@@H](Cc3ccccc3)[C@@H]1[C@H](C)C(C)=C[C@@H]2CCOCCc1ccccc1F [Compound 17f, Methyl (1S,3aR,4S,7S,7aR)-1-benzyl-4-(2-(2-fluorophenethoxy)ethyl)-6,7-dimethyl-3-oxo-1,2,3,4,7,7a-hexahydro-3aH-isoindole-3a-carboxylate] | 21 ± 4.32 | 0.92 | 34.5 ± 4.69 | 1.6 | – |
| COC(=O)[C@@]12C(=O)N[C@@H](Cc3ccccc3)[C@@H]1[C@H](C)[C@@]1(C)O[C@H]1[C@@H]2CCOCCc1ccc(OC)cc1 [Compound 22b, Methyl (1aS,2R,2aS,5S,5aR,6S,6aR)-5-benzyl-2-(2-(4-methoxyphenethoxy)ethyl)-6,6a-dimethyl-3-oxooctahydro-2aH-oxireno[2,3-f]isoindole-2a-carboxylate] | 20.6 ± 6.43 | 1.24 | > 50 | >2.4 | – |
| COC(=O)[C@@]12C(=O)N[C@@H](Cc3ccccc3)[C@@H]1[C@H](C)[C@@](C)(Cl)[C@H](O)[C@@H]2CCOCCc1ccccc1 [Compound 26, Methyl (1S,3aS,4R,5R,6R,7S,7aR)-1-benzyl-6-chloro-5-hydroxy-6,7-dimethyl-3-oxo-4-(2-phenethoxyethyl)octahydro-3aH-isoindole-3a-carboxylate] | > 50 | 0.88 | > 50 | – | – |
| COC(=O)[C@@]12C(=O)N[C@@H](Cc3ccccc3)[C@@H]1[C@H](C)[C@@](C)(O)[C@@H](O)[C@@H]2CCOCCc1ccc(Br)cc1 [Compound 23h, Methyl (1S,3aS,4R,5S,6R,7S,7aR)-1-benzyl-4-(2-(4-bromophenethoxy)ethyl)-5,6-dihydroxy-6,7-dimethyl-3-oxooctahydro-3aH-isoindole-3a-carboxylate] | 23 ± 2.17 | 0.93 | > 50 | >2.2 | – |

From PMC10809383, “Synthesis and migrastatic activity of cytochalasin analogues lacking a macrocyclic moiety” (RSC Medicinal Chemistry, 2023)
